These are literature values, as cited in patent publication US12708634B2, “Psilocybin derived compositions and methods using same” (1242753 Ontario Inc., priority 2021, dated 2026).

Series [1] deals with patients with treatment-resistant major depression. The settings on record: two oral doses (10 mg followed by 25 mg a week later).
The subject of series [2] is patients with advanced-stage cancer. The settings on record: oral dose 0.2 mg/kg.

Turning to `CN(C)CCc1c[nH]c2cccc(OP(=O)(O)O)c12` [psilocybin], the adverse events result in series [1] and in series [2] was “no clinically significant adverse events” in each case.
